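Compound exposure: 48 hours, 5 concentrations, 96-well plates. TGI: total growth inhibition.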 Some results are limits rather than exact numbers.

Among the test systems are CCRF-CEM leukemia; BT-549 breast; A498 renal; M14 melanoma; KM12 colon; MOLT-4 leukemia; MDA-MB-435; OVCAR-4 ovarian; HCT-116 colon; NCI-H23 lung; SK-MEL-2 melanoma; 786-0 renal; SK-OV-3 ovarian; SR leukemia; UACC-62 melanoma; SK-MEL-28 melanoma; UACC-257 melanoma; HOP-62 NSCLC; SNB-19 CNS.
Holding throughout (assay): DTP human tumour cell line panel, 48 h

As for `O=C1CC(=O)NC(=NN2C(=O)CSC2c2ccc(Cl)c(Cl)c2)N1` (stereo not drawn), the TGI (usually the concentration at which net growth stops) in the assay with CCRF-CEM leukemia is 49.3 µM; in the assay on BT-549 breast, greater than 100 µM; in the assay with A498 renal it was greater than 100 µM; in the assay with M14 melanoma it was greater than 100 µM; in the assay with KM12 colon, greater than 100 µM; in the assay with MOLT-4 leukemia, 54.3 µM. The TGI with MDA-MB-435, in the assay with OVCAR-4 ovarian, in the assay with HCT-116 colon, with NCI-H23 lung, in the assay with SK-MEL-2 melanoma and in the assay with 786-0 renal was greater than 100 µM each time. The TGI in the assay on SK-OV-3 ovarian, in the assay with SR leukemia, in the assay with UACC-62 melanoma, in the assay with SK-MEL-28 melanoma, in the assay on UACC-257 melanoma and with HOP-62 NSCLC was greater than 100 µM throughout.

Take `Cc1ccc(NCC2CC/C(=C\c3ccc(Cl)cc3)C2=O)cc1` (stereo not drawn): the total growth inhibition concentration (TGI) with CCRF-CEM leukemia was 19.3 µM; with BT-549 breast, 36.5 µM; in the assay with A498 renal, greater than 73.3 µM; with M14 melanoma, 28.9 µM; with KM12 colon, 19 µM; with MOLT-4 leukemia it was greater than 32.4 µM. Besides, the TGI in the assay on MDA-MB-435 was 35.9 µM; with OVCAR-4 ovarian, greater than 80.7 µM; in the assay with HCT-116 colon it was 26 µM; with NCI-H23 lung, 45.7 µM; in the assay on 786-0 renal, 11.3 µM; in the assay on SK-OV-3 ovarian it was greater than 100 µM. In addition, the TGI in the assay with SR leukemia is greater than 24 µM; in the assay on UACC-62 melanoma, 58.6 µM; in the assay on SNB-19 CNS, greater than 55.7 µM; in the assay on SK-MEL-28 melanoma, 36.7 µM; in the assay with UACC-257 melanoma it was 39.2 µM; in the assay on HOP-62 NSCLC it was greater than 82.6 µM.

For the compound `CCOC(=O)c1nc2ccc(C(F)(F)F)cc2nc1NCc1ccc(Cl)c(Cl)c1`, the TGI was greater than 100 µM with CCRF-CEM leukemia; greater than 100 µM in the assay with BT-549 breast; 92.1 µM in the assay on A498 renal; greater than 100 µM in the assay with M14 melanoma; greater than 100 µM with KM12 colon; greater than 100 µM in the assay with MOLT-4 leukemia. Also, the TGI in the assay with MDA-MB-435 was 56.7 µM; in the assay on OVCAR-4 ovarian, 48.6 µM; in the assay with HCT-116 colon, greater than 100 µM; with NCI-H23 lung, greater than 100 µM; in the assay on SK-MEL-2 melanoma, greater than 100 µM; in the assay with 786-0 renal it was 46.7 µM. The total growth inhibition concentration (TGI) in the assay on SK-OV-3 ovarian is greater than 100 µM; in the assay with SR leukemia, greater than 100 µM; in the assay on UACC-62 melanoma it was greater than 100 µM; with SNB-19 CNS, 83.2 µM; in the assay with UACC-257 melanoma it was greater than 100 µM; with HOP-62 NSCLC, 52.1 µM.

Regarding `NCCCNCCCNCCCN`, the concentration for total growth inhibition (TGI) with BT-549 breast was greater than 100 µM; in the assay on A498 renal, greater than 100 µM; in the assay with M14 melanoma, greater than 100 µM; with KM12 colon, greater than 100 µM; in the assay on MOLT-4 leukemia, 42.4 µM; in the assay on MDA-MB-435, greater than 100 µM. Moreover, the concentration for total growth inhibition (TGI) in the assay on OVCAR-4 ovarian, with HCT-116 colon, in the assay on NCI-H23 lung, in the assay on SK-MEL-2 melanoma, in the assay with 786-0 renal and with SK-OV-3 ovarian was greater than 100 µM throughout. The concentration for total growth inhibition (TGI) was 44.7 µM in the assay on SR leukemia; greater than 100 µM in the assay with UACC-62 melanoma; greater than 100 µM in the assay on SNB-19 CNS; greater than 100 µM in the assay on SK-MEL-28 melanoma; greater than 100 µM with UACC-257 melanoma; greater than 100 µM in the assay with HOP-62 NSCLC.

`C[C@@]12C=CC3C/C(=N\C(N)=S)C=C(CCCC4OCCO4)[C@]3(CC1)C2` (stereo partly drawn): the total growth inhibition concentration (TGI) in the assay on BT-549 breast was 51.9 µM; in the assay on A498 renal, 33.1 µM; with M14 melanoma, 30.9 µM; in the assay with KM12 colon, greater than 100 µM; with MOLT-4 leukemia it was 59.2 µM; in the assay on MDA-MB-435 it was 45.5 µM. Besides, the total growth inhibition concentration (TGI) with OVCAR-4 ovarian was 99.2 µM; with HCT-116 colon, 26.8 µM; in the assay on NCI-H23 lung, 58.5 µM; with SK-MEL-2 melanoma it was 30.6 µM; with 786-0 renal it was 57.1 µM; with SK-OV-3 ovarian, greater than 100 µM. In addition, the TGI with SR leukemia was 60.7 µM; with UACC-62 melanoma it was 30.4 µM; in the assay with SNB-19 CNS, greater than 100 µM; with SK-MEL-28 melanoma it was 35 µM; in the assay on UACC-257 melanoma it was 40.7 µM; with HOP-62 NSCLC, 92.3 µM.

For the compound `COc1ccc(OC)c2sc(N3C(=O)/C(=C/Cc4ccco4)N=C3c3ccccc3)nc12`, the total growth inhibition concentration (TGI) was 26.9 µM with CCRF-CEM leukemia; greater than 100 µM in the assay with BT-549 breast; greater than 100 µM in the assay with A498 renal; greater than 100 µM in the assay on M14 melanoma; greater than 100 µM in the assay on KM12 colon; 70.9 µM in the assay on MOLT-4 leukemia. In addition, the total growth inhibition concentration (TGI) in the assay with MDA-MB-435 was 60.8 µM; in the assay with OVCAR-4 ovarian it was greater than 100 µM; with HCT-116 colon, 98.9 µM; in the assay with SK-MEL-2 melanoma, 67.3 µM; in the assay with 786-0 renal it was greater than 100 µM; with SK-OV-3 ovarian, greater than 100 µM. For the same compound, the total growth inhibition concentration (TGI) is 43.9 µM in the assay on SR leukemia; 51.1 µM in the assay on UACC-62 melanoma; greater than 100 µM in the assay with SNB-19 CNS; greater than 100 µM with SK-MEL-28 melanoma; greater than 100 µM with UACC-257 melanoma; greater than 100 µM with HOP-62 NSCLC.

On to `CN(C)c1ccc(-c2c(C#N)c(N)[nH]c(=S)c2C#N)cc1`, for which the TGI is greater than 100 µM with CCRF-CEM leukemia; greater than 100 µM in the assay on BT-549 breast; 96.2 µM in the assay with A498 renal; greater than 100 µM in the assay with M14 melanoma; greater than 100 µM with MDA-MB-435; greater than 100 µM in the assay on OVCAR-4 ovarian. The TGI in the assay on HCT-116 colon, with NCI-H23 lung, in the assay with SK-MEL-2 melanoma, in the assay with 786-0 renal, in the assay with SK-OV-3 ovarian and with SR leukemia was greater than 100 µM throughout. In addition, the TGI in the assay with UACC-62 melanoma, in the assay with SNB-19 CNS, in the assay with SK-MEL-28 melanoma, in the assay on UACC-257 melanoma and with HOP-62 NSCLC was greater than 100 µM in each case.

For `CCCCc1ccc(Nc2nc(Cl)c3c(ncn3COCCOC(C)=O)n2)cc1`, the TGI was 60.7 µM in the assay on CCRF-CEM leukemia; 31.4 µM in the assay on BT-549 breast; 38.8 µM in the assay on A498 renal; 34 µM in the assay with M14 melanoma; 37.5 µM with KM12 colon; 42.5 µM with MOLT-4 leukemia. Also, the total growth inhibition concentration (TGI) with MDA-MB-435 is 32.9 µM; with OVCAR-4 ovarian, 66.6 µM; in the assay on HCT-116 colon it was 31.3 µM; in the assay with NCI-H23 lung, 35.6 µM; with SK-MEL-2 melanoma, 39.2 µM; in the assay on 786-0 renal, 36.9 µM. Further, the TGI came to 42.9 µM in the assay with SK-OV-3 ovarian; 47.3 µM with SR leukemia; 31.1 µM in the assay with UACC-62 melanoma; 46.1 µM in the assay with SNB-19 CNS; 31.4 µM in the assay with UACC-257 melanoma; 31.5 µM in the assay with HOP-62 NSCLC.

The values are drawn from PubChem BioAssay (NCI).
